“And” between values parts separate entries of the source, which are not always exact repeats. Equal entries are not always repeated. Primed or numbered codes have the meaning given here. 13C‑Gly = glycine labeled with carbon-13 (13C); Bz′ = not defined here
What was measured:
[1] = test system: chronic pancreatitis rats and control (normal) rats; experiment: ^13C-breath test (Δ^13C in exhaled CO2 after oral administration); format: in vivo, rat; conditions: for Δ^13C (‰) value at 30 minutes after the administration (group mean): 30 mg/kg oral; for Δ^13C (‰) (mean) value at 15 minutes after the administration: 420 mg/kg oral
Experimental: (§1) A model of chronic pancreatitis in rats were prepared by injecting oleic acid into the pancreatic duct (Mundlos et al., Pancreas 1:29 (1986)). After overnight fast, a Wistar male rat of 5 weeks old was anesthetized by intraperitoneal administration of Nembutal (50 mg/kg). The abdominal wall was shaved and the rat was fixed supinely on an operating table. An Isodine solution was applied to sterilize, and a 3 to 4 cm midline incision was made on the abdomen. The duodenum and the pancreas were drawn out and a 25 G needle was pierced through the duodenal wall. A polyethylene cannula (PE-10) was inserted through the pierced hole into the duodenum and further inserted into the common bile duct by about 5 mm from the papilla. The inserted cannula was fixed by a microclip. Further, the biliary duct was closed by a microclip in order to prevent oleic acid from flowing into the liver. Oleic acid (50 μl) was injected at a rate of 20 μl/min by a microsyringe pump. After the injection was completed, the rat was allowed to stand for 2 minutes so that the oleic acid was distributed throughout the pancreas. The microclips and cannula were removed and the duodenum was returned. The endothelium was sutured with silk thread (Nescosuture silk suture thread 3-0, Nihon Shoji KK) and the outer skin was sutured with a skin stapler (Appose ULC, No. 8034-12, 5.7×3.8 mm). As a control, only laparotomy was carried out. These rats subjected to the operation were kept under free intake of standard food and water at 23° C., relative humidity of 55% until use.
The rat of 9 weeks old was fixed without anesthesia in a rat holder for a microwave irradiation apparatus. The breath was collected at a rate of about 100 to 300 ml/min using a stroke pump (Variable Stroke Pump VS-500, Shibata Kagaku Kogyo) and introduced directly to a flow cell of a ^13CO2 analyzer EX-130S (Nihon Bunko). A Perma Pure drier (MD-050-12P, Perma Pure INC.) was set between the rat holder and stroke pump to remove out water vapor in the breath. […]
Output data from the ^13CO2 analyzer were AD converted and put into a personal computer (Apple Power Macintosh 8500). Using a data processing soft ware Lab VIEW (National Instruments), 10 data points at every 100 msec were integrated and averaged in an interval of 5 seconds and converted to ^13C atom %, Δ^13C (‰), and CO2 concentration (%) In this manner, the ^13C breath test was continuously carried out. […] CO2 concentration in the collected breath was held at 3±0.5%.
Δ^13C (‰) was calculated from the ^13C concentration in the exhaled CO2 at each time point (^13C tmin) and the ^13C concentration in standard CO2 (^13C std) according to the following equation: Δ^13C (‰)=[(^13C tmin−^13C 0min)/^13C std]×1000

[2] = target: T1, chymotrypsin (from bovine pancreas) (Bos taurus, UniProt P00766); experiment: Degradation by chymotrypsin (leucine released, ninhydrin reaction); format: biochemical
T1 construct: purchased Worthington Biochemical Corporation #1432, Lot 37A906; host or cells: bovine pancreas (natural source)
Experimental: Bz-DL-Phe-(^13C-Leu) was reacted with chymotrypsin and the degradation product, leucine, generated upon action of chymotrypsin was quantitatively determined by ninhydrin reaction. The reaction was carried out in 20 mM HEPPS-Na (pH 8.0), 23 mM Bz-DL-Phe-(^13C-Leu), 0.16 mg/ml chymotrypsin (from bovine pancreas, Worthington Biochemical Corporation, #1432, Lot 37A906) at 37° C. for 15 minutes. After reaction, 50 μl of citrate buffer (citric acid monohydrate), 20 μl of ninhydrin solution (50 mg/ml solution in methyl cellosolve) and 100 μl of KCN solution (0.01 M aqueous KCN solution diluted 50 times with methyl cellosolve) were added to 100 μl of the reaction mixture and heated at 100° C. for 15 minutes. After cooling the ninhydrin reaction mixture to room temperature, 150 μl of 60% (V/V) ethanol was added to 100 μl of the ninhydrin reaction mixture and stirred followed by determination of an absorbance at a wave length of 570 nm. An experiment wherein all the reactions that were carried out without adding Bz-DL-Phe-(^13C-Leu) was taken as a “blank,” and leucine was used as a standard.

Wistar male rat pancreas = experiment: Model of chronic pancreatitis by oleic acid injection into the pancreatic duct: enzyme contents; format: in vivo
Experimental: as §1, with “use. After injecting oleic acid into the pancreatic duct and being kept for 3 weeks, these rats (oleic acid-injected rats) were subjected to measurement of amylase in the blood, and to quantitative determination of chymotrypsinogen and amylase contents in the pancreas (FIG. 1). An extraction buffer (20 mM HEPPS+Na, pH 8.0, 100 mM KCl, 0.5% (w/v) Triton X-100) was added to the removed pancreas to the total volume of 10 ml. The material was subjected to ultrasonic disruption (Bionic 7250, Seiko, Sonics & Materials) and centrifuged at 10,000×g for 20 minutes to yield a pancreatic extract as a supernatant. […] After the reaction, 10 μl of 100% (W/V) TCA solution was added and centrifuged at 15,000×g for 5 minutes and the PABA in the supernatant was quantitatively determined using a PABA measuring kit (Eisai). The amylase activity in the pancreatic extract was measured using Fuji Dri-Chem. Both units of activity (U) show μ mole release/min.” for “use.”

[3] = chronic pancreatitis rats #1-#4, 250 mg/kg oral
[4] = chronic pancreatitis rats (n=4), 250 mg/kg oral
[5] = normal rats #1-#4, 250 mg/kg oral
[6] = normal rats (n=4), 250 mg/kg oral
[7] = oleic acid-injected rats (n=17), 50 μl into pancreatic duct, 3 weeks after

Bz-Tyr-(^13C-Leu)
Δ^13C (‰) at 20 min, individual rat [1, 3]: 8.76 ‰ and 3.58 ‰ and 2.44 ‰ and −0.15 ‰ | Δ^13C (‰) value at 20 minutes after the administration (group mean) [1, 4]: 3.66±3.24 ‰ | Δ^13C (‰) at 20 min, individual rat [1, 5]: 65.76 ‰ and 21.02 ‰ and 80.02 ‰ and 111.32 ‰ | Δ^13C (‰) value at 20 minutes after the administration (group mean) [1, 6]: 69.53±32.50 ‰

Arg-(^13C-Leu)
Δ^13C (‰) at 30 min, individual rat ([1]; chronic pancreatitis rats #1-#4, 30 mg/kg oral): 3.74 ‰ and 6.97 ‰ and 4.87 ‰ and 1.92 ‰ | Δ^13C (‰) value at 30 minutes after the administration (group mean) ([1]; chronic pancreatitis rats (n=4)): 4.37±1.83 ‰ | Δ^13C (‰) at 30 min, individual rat ([1]; normal rats #1-#4, 30 mg/kg oral): 13.74 ‰ and 15.37 ‰ and 10.08 ‰ and 10.30 ‰ | Δ^13C (‰) value at 30 minutes after the administration (group mean) ([1]; normal rats (n=4)): 12.37±2.26 ‰

Bz-DL-Phe-(^13C-Leu)
rate of degradation ([2]; 23 mM substrate, 0.16 mg/ml chymotrypsin, 20 mM HEPPS-Na pH 8.0, 37° C., 15 minutes): 1.72 nmole/mg chymotrypsin/min | substrate for chymotrypsin ([2]; same reaction, leucine produced): could be a substrate for chymotrypsin | time course of Δ^13C (‰) ([1]; 7 cases of the chronic pancreatitis rats (n=8), 250 mg/kg oral): the degree of increase was small and continued to slowly increase for 30 minutes

CCCCCCCC/C=C\CCCCCCCC(=O)O [oleic acid]
rats evaluated to have pancreatitis (chymotrypsinogen content below mean−2SD of control) (Wistar male rat pancreas; 12 rats among 17 oleic acid-injected rats): 70% | blood amylase concentration (Wistar male rat pancreas; oleic acid-injected rats (n=17), 3 weeks after): 2137 U | amylase content in the pancreas (Wistar male rat pancreas; [7]): 789 U | chymotrypsinogen content in the pancreas (Wistar male rat pancreas; [7]): 8.1 U

Bz-L-Phe-(^13C-Leu)
Δ^13C (‰) at 10 min, individual rat [1, 3]: 1.61 ‰ and 3.28 ‰ and 17.21 ‰ and 5.77 ‰ | Δ^13C (‰) value at 10 minutes after the administration (group mean) [1, 4]: 6.97±6.09 ‰ | Δ^13C (‰) at 10 min, individual rat [1, 5]: 60.25 ‰ and 165.37 ‰ and 203.16 ‰ and 31.29 ‰ | Δ^13C (‰) value at 10 minutes after the administration (group mean) [1, 6]: 115.02±71.26 ‰

Bz-Arg-(^13C-Leu).HCl
Δ^13C (‰) at 20 min, individual rat ([1]; chronic pancreatitis rats #1-#3, 100 mg/kg oral): 3.69 ‰ and 11.25 ‰ and −5.79 ‰ | Δ^13C (‰) value at 20 minutes after the administration (group mean) ([1]; chronic pancreatitis rats (n=3), 100 mg/kg oral): 3.05±6.97 ‰ | Δ^13C (‰) at 20 min, individual rat ([1]; normal rats #1-#3, 100 mg/kg oral): 79.91 ‰ and 51.94 ‰ and 74.46 ‰ | Δ^13C (‰) value at 20 minutes after the administration (group mean) ([1]; normal rats (n=3), 100 mg/kg oral): 68.77±12.01 ‰

Bz-Ala-Ala-Ala-Ala-(^13C-Gly)-Phe-Leu ({Bz′}-AAAA-{13C‑Gly-Phe-Leu})
Δ^13C (‰) at 15 min, individual rat ([1]; chronic pancreatitis rats #1-#2, 420 mg/kg oral): −1.90 ‰ and 3.12 ‰ | Δ^13C (‰) (mean) value at 15 minutes after the administration ([1]; chronic pancreatitis rats (n=2)): 0.61 ‰ | Δ^13C (‰) at 15 min, individual rat ([1]; normal rats #1-#2, 420 mg/kg oral): 23.47 ‰ and 43.16 ‰ | Δ^13C (‰) (mean) value at 15 minutes after the administration ([1]; normal rats (n=2)): 33.32 ‰

— patent US7232559B1, “Diagnostic agents for pancreatic exocrine function” (Tokyo Gas Company Limited, priority 1999, dated 2007)
